Reference: patent publication US9012641B2, “Crystalline forms of Prasugrel salts” (Teva Pharmaceuticals Industries Ltd., priority 2010, dated 2015)
Structures can show the parent of a compound that is named as a salt.

Assay: Storage of the sample in an open Petri dish at room conditions, reanalysed on HPLC
Assay type: physicochemical
Details: room conditions (20-25° C., relative humidity 20-30%), 1 month, HPLC purity before storage 99.94%
Method: The sample was left in an open Petri dish at room conditions (20-25° C., relative humidity 20-30%) for 1 month and then reanalyzed on HPLC giving purity of 99.84%.

HPLC purity after storage: 99.84%
SMILES: CC(=O)Oc1cc2c(s1)CCN(C(C(=O)C1CC1)c1ccccc1F)C2 (stereo not shown) [form II of prasugrel hydrobromide, Prasugrel hydrobromide]
